Experimental data from article PMC8795404, “Mutations in respiratory complex I promote antibiotic persistence through alterations in intracellular acidity and protein synthesis” (Nature Communications, 2022).

Columns and labels:
Type in all cases: biochemical
[1] = target: T1, complex I (NADH/ubiquinone oxidoreductase) (Escherichia coli, UniProt P0AFC7+P0AFD4+P31979+P33599); assay: NADH absorbance at […] nm, proteoliposomes; settings: 100 µM NADH, 60 µM decyl-ubiquinone, 5 mM MES/NaOH, 50 mM KCl, 2 mM MgCl2, pH 6.0, 30 °C
T1 construct: gene nuoB; 13-subunit complex, about 550 kDa, NuoF His6-tagged (pBADnuo nuoFHis6) expressed in BW25113 delta-nuo delta-ndh; DDM-purified, in proteoliposomes or in membranes; with NADH-quinone oxidoreductase subunit A; NADH-quinone oxidoreductase subunit E; NADH-quinone oxidoreductase subunit G; NADH-quinone oxidoreductase subunit I; NADH-quinone oxidoreductase subunit J; NADH-quinone oxidoreductase subunit K; NADH-quinone oxidoreductase subunit L; NADH-quinone oxidoreductase subunit M; NADH-quinone oxidoreductase subunit N

[2] = target: T2, 6His-SpoT (Escherichia coli, UniProt P0AG24); assay: HPLC-UV ([…] nm) ppGpp hydrolysis; settings: 1 mM ppGpp, 1 mM manganese, cytosolic buffer with 250 mM imidazole, 25 °C, pH varied; free enzyme
T2 construct: full-length with N-terminal His tag (pETM11-SpoT), expressed in E. coli BL21 (DE3) pLysS, Ni-Sepharose purified

[3] = target: T3, ENC-spoT (encapsulin SpoT) (Escherichia coli, UniProt P0AG24); assay: HPLC-UV ([…] nm) ppGpp hydrolysis; settings: 1 mM ppGpp, 1 mM manganese, cytosolic buffer with 250 mM imidazole and 0.1% triton-X100, 25 °C, pH varied; enzyme encapsulated in nanocage
T3 construct: N-terminal 6xHis tag, C-terminal 30-residue DyP-peroxidase cargo tag; co-expressed in E. coli BL21-AI inside Mycolicibacterium hassiacum encapsulin nanocage
T3 sequence (P0AG24 whole entry): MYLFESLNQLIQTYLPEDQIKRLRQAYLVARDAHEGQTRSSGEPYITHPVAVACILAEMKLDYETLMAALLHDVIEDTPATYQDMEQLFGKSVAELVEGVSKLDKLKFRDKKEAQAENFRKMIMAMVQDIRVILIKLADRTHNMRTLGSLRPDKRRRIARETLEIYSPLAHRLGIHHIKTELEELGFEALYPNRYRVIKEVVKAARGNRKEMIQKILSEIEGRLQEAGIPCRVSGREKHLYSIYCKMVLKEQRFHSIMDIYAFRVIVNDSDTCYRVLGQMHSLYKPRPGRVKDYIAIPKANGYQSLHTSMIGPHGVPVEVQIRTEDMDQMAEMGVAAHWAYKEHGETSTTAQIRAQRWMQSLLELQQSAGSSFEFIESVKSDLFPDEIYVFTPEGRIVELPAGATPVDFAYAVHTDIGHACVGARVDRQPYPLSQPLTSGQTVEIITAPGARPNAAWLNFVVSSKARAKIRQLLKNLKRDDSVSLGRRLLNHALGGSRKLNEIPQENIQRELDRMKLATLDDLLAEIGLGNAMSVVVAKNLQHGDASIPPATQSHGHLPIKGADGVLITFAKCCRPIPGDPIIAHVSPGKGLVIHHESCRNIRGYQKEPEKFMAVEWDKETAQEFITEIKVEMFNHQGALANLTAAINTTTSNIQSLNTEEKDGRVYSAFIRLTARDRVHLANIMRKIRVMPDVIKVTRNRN

T2 sequence (P0AG24 whole entry): as above

NC(=O)C1=CN([C@@H]2O[C@H](COP(=O)(O)OP(=O)(O)OC[C@H]3O[C@@H](n4cnc5c(N)ncnc54)[C@H](O)[C@@H]3O)[C@@H](O)[C@H]2O)C=CC1 [NADH]
NADH absorbance at 340 nm, proteoliposomes [1]: liposomes reconstituted with wild-type complex I and the variants oxidized NADH at a similar rate

Nc1nc2c(ncn2[C@@H]2O[C@H](COP(=O)(O)OP(=O)(O)O)[C@@H](OP(=O)(O)OP(=O)(O)O)[C@H]2O)c(=O)[nH]1 [ppGpp]
HPLC-UV (260 nm) ppGpp hydrolysis [2]: SpoT hydrolyzes ppGpp to GDP, and that manganese ions are necessary for hydrolysis
HPLC-UV (260 nm) ppGpp hydrolysis [3]: We used both the encapsulated SpoT and regularly purified SpoT

CCCCCCCCCCC1=C(C)C(=O)C(OC)=C(OC)C1=O [decyl ubiquinone]
NADH absorbance at 340 nm, proteoliposomes [1]: NADH/decyl ubiquinone oxidoreduction was followed by monitoring the decreasing NADH concentration
